Measurements taken from paper PMC2905153 (Cell calcium, 2009).

Biological target: CRACM1/Orai1 (Homo sapiens, UniProt Q96D31)
Assay type: cell-based

Sequence of CRACM1/Orai1 (Q96D31 whole entry): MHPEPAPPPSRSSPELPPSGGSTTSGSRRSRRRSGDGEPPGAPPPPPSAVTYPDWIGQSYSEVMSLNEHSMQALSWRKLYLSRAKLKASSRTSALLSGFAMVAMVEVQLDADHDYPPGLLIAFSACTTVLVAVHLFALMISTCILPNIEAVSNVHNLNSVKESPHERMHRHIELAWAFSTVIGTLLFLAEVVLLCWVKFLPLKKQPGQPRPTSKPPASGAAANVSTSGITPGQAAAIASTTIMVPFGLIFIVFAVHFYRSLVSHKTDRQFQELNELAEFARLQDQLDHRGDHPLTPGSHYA
Sequence of CRACM1/Orai1 (Q13586 23-685 partner): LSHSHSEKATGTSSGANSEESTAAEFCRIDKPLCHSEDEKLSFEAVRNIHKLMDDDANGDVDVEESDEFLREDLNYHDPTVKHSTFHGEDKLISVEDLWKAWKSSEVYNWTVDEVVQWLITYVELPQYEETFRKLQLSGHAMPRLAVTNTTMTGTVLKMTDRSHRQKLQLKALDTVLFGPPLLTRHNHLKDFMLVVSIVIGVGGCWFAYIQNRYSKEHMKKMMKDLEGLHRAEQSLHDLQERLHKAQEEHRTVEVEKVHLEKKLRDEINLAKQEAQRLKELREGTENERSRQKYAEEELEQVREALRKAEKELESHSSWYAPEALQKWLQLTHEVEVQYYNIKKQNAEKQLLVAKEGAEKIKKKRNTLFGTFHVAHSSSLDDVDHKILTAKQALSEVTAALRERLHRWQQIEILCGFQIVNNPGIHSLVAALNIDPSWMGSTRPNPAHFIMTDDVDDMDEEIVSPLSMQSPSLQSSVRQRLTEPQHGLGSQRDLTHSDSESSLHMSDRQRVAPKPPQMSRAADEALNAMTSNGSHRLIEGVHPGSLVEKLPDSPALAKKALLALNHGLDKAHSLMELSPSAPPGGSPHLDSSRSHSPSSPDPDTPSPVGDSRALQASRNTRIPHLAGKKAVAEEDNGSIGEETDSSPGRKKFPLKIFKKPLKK

| IC50 [nM] | Substance |
| --- | --- |
| 86 ± 21 | DPB162-AE |
| 170 ± 68 | DPB163-AE |
